This passage reports EC50 and MIC results from patent US12173018B2, “Penicillin-binding protein inhibitors” (priority 2018, dated 2024).

The structures appear in SMILES notation. Values after ≈ are worked out from the molar mass of the structure shown. Like-named read-outs stand apart in the source and are kept apart here.

The target in one experiment is E. coli PBP2 (Escherichia coli (strain K12), UniProt P0AD65). The experiment can be described thus: E. coli PBP2 Bocillin-FL fluorescence polarization competition binding assay. The gist of the method: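 Fluorescence polarization competition with Bocillin-FL (0.1 μM final) and purified PBP2 (1.5 μM final) in 50 mM Hepes pH 8.0, 300 mM NaCl, 5% glycerol. FP (ex 490/em 520 nm) read for 90 min after Bocillin-FL addition; EC50 is the inhibitor concentration reducing Bocillin-FL binding by half.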
Chain of E. coli PBP2 (P0AD65 whole entry): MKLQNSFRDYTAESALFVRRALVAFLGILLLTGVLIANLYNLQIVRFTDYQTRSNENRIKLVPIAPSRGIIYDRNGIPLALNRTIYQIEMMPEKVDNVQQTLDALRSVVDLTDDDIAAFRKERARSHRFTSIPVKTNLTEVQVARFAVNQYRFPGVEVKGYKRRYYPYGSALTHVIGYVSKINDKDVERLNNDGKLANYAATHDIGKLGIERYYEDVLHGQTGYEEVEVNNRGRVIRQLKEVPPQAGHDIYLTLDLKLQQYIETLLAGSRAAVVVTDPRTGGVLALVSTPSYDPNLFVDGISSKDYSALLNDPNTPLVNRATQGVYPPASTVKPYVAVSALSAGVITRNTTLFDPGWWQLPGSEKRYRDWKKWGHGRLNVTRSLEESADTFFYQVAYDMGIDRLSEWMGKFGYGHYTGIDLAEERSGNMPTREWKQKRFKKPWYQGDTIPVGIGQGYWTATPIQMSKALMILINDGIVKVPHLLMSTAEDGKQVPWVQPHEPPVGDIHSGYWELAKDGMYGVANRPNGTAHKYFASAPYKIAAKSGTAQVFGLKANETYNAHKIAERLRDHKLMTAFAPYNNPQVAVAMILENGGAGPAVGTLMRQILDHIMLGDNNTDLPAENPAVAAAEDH

Another experiment deals with E. coli PBP1a (Escherichia coli (strain K12), UniProt P02918). As to the kind of experiment: Radioligand competition binding assay with 14C-labeled boronic acid probe, PBP1a. The method in brief:
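Purified E. coli PBP1a (0.1 μM) preincubated 60 min with test boronic acid inhibitor in 20 mM Tris pH 7.5, 500 mM NaCl, 0.1% Triton X-100, then 60 min with 20 μM ^14C-labeled boronic acid probe. Bound probe recovered by spin desalting and counted by scintillation; EC50 reported.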

The next experiment deals with E. coli PBP1b (Escherichia coli (strain K12), UniProt P02919). As to the kind of experiment: Radioligand competition binding assay with 14C-labeled boronic acid probe, PBP1b.
Chain of E. coli PBP1b (P02919 whole entry): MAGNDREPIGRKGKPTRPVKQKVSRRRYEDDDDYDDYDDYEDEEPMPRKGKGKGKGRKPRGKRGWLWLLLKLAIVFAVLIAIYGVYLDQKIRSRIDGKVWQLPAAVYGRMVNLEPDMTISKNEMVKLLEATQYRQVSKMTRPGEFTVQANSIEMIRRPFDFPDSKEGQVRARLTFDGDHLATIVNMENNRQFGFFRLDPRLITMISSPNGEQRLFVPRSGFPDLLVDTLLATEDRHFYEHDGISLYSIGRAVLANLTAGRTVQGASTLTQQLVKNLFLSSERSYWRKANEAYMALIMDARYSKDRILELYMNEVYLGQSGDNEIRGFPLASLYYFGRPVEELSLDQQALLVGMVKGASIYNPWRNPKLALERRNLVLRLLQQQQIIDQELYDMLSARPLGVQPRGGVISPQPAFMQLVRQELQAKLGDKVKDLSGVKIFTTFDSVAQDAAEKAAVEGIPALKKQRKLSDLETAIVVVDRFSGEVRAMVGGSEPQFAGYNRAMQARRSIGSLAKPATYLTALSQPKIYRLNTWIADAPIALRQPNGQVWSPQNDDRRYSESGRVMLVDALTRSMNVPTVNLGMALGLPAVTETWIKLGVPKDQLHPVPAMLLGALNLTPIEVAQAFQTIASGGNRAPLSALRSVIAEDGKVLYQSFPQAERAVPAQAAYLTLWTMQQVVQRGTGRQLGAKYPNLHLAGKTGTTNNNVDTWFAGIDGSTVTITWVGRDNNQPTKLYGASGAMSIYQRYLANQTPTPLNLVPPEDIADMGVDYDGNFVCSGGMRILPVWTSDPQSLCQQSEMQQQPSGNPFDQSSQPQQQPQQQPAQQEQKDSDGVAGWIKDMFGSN
The subject of experiment [1] is engineered strain of Escherichia coli harboring CTX-M15. The experiment can be described thus: microbe, parasite or virus in culture. To be noted: Escherichia coli, read-out: Microbiological Activity (MIC in mg/L), E. coli DH5α/pLBII-CTX-M15, engineered strain producing CTX-M15. Type of experiment: cell-based.
The mark [2] stands for this setting: fluorescence polarization competition binding with Bocillin-FL, read-out: E. coli K12 PBP2 Potency (EC50).

Chain of E. coli PBP1a (P02918 whole entry): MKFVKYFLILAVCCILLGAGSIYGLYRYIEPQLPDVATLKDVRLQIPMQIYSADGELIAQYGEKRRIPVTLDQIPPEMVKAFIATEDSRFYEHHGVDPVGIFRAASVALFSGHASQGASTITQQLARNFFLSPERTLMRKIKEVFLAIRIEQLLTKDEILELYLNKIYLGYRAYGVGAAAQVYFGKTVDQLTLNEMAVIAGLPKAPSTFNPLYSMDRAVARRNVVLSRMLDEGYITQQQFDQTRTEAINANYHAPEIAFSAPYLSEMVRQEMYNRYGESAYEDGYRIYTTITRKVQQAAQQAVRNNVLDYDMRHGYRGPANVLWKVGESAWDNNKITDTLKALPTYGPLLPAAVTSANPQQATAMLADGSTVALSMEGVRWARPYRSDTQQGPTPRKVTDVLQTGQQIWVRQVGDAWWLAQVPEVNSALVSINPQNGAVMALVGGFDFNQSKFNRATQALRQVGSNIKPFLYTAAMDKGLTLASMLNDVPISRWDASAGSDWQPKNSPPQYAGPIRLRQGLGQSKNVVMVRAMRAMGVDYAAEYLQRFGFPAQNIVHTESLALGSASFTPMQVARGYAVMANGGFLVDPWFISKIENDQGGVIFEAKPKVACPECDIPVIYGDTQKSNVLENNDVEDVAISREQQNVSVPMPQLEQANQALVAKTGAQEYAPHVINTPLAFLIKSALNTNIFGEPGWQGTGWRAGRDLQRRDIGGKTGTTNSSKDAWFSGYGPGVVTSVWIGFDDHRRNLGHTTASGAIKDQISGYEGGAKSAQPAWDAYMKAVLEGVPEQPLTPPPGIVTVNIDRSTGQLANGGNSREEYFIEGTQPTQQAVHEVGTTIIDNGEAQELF

On to `CCN1CCN(C(=O)NC(C(=O)N[C@H]2Cc3cccc(C(=O)O)c3OB2O)c2csc(N)n2)C(=O)C1=O` (stereo partly drawn) [Example 5, (3R)-3-(2-(2-aminothiazol-4-yl)-2-(4-ethyl-2,3-dioxopiperazine-1-carboxamido)acetamido)-2-hydroxy-3,4-dihydro-2H-benzo[e][1,2]oxaborinine-8-carboxylic acid], for which the EC50 at E. coli PBP2 (setting [2]) was 30 to 500 µM; at E. coli PBP1a, under 10 µM; at E. coli PBP1b, under 10 µM.
As for `CCN1CCN(C(=O)NC(C(=O)N[C@H]2Cc3cccc(C(=O)O)c3OB2O)c2ccc(O)cc2)C(=O)C1=O` (stereo partly drawn) [Example 27, (3R)-3-(2-(4-ethyl-2,3-dioxopiperazine-1-carboxamido)-2-(4-hydroxyphenyl)acetamido)-2-hydroxy-3,4-dihydro-2H-benzo[e][1,2]oxaborinine-8-carboxylic acid], the EC50 was over 500 µM on E. coli PBP2 (setting [2]) and under 10 µM at E. coli PBP1a. Moreover, the MIC in experiment [1] lay within 8 to 16 mg/L (≈ 15.3 to 30.5 µM).
On E. coli PBP1a, `CCN1CCN(C(=O)NC(C(=O)N[C@H]2Cc3cccc(C(=O)O)c3OB2O)c2ccc(O)c(O)c2F)C(=O)C1=O` (stereo partly shown) [Example 70] showed an EC50 of under 10 µM. Further, the MIC in experiment [1] fell in the range of 32 to 64 mg/L (≈ 57.3 to 115 µM).
Consider `O=C(O)c1cccc2c1OB(O)[C@@H](NC(=O)C(NC(=O)N1CCN(CCF)C(=O)C1=O)c1ccc(O)c(O)c1Cl)C2` (stereo partly drawn) [Example 71, (3R)-3-(2-(2-chloro-3,4-dihydroxyphenyl)-2-(4-(2-fluoroethyl)-2,3-dioxopiperazine-1-carboxamido)acetamido)-2-hydroxy-3,4-dihydro-2H-benzo[e][1,2]oxaborinine-8-carboxylic acid], for which the EC50 on E. coli PBP1a and on E. coli PBP1b was under 10 µM in each case. For the same compound, the MIC in experiment [1] was 8 to 16 mg/L (≈ 13.5 to 27 µM).
Consider `CCN1CCN(C(=O)NC(C(=O)N[C@H]2Cc3cccc(C(=O)O)c3OB2O)c2ccc(S(N)(=O)=O)cc2)C(=O)C1=O` (stereo partly drawn) [Example 102, (3R)-3-(2-(4-ethyl-2,3-dioxopiperazine-1-carboxamido)-2-(4-sulfamoylphenyl)acetamido)-2-hydroxy-3,4-dihydro-2H-benzo[e][1,2]oxaborinine-8-carboxylic acid], for which the EC50 on E. coli PBP2 (setting [2]) was over 500 µM; at E. coli PBP1a, 10 to 100 µM. The MIC in experiment [1] was in the range of 8 to 16 mg/L (≈ 13.6 to 27.2 µM).
As for `NS(=O)(=O)c1ccc(C(NC(=O)N2CCN(CCF)C(=O)C2=O)C(=O)N[C@H]2Cc3cccc(C(=O)O)c3OB2O)cc1` (stereo partly drawn) [Example 103, (3R)-3-(2-(4-(2-fluoroethyl)-2,3-dioxopiperazine-1-carboxamido)-2-(4-sulfamoylphenyl)acetamido)-2-hydroxy-3,4-dihydro-2H-benzo[e][1,2]oxaborinine-8-carboxylic acid], the EC50 on E. coli PBP2 (setting [2]) is over 500 µM; on E. coli PBP1a, 10 to 100 µM.
For `CCN1CCN(C(=O)NC(C(=O)N[C@H]2Cc3cccc(C(=O)O)c3OB2O)c2cccc(N)n2)C(=O)C1=O` (stereo partly drawn) [Example 104, (3R)-3-(2-(6-aminopyridin-2-yl)-2-(4-ethyl-2,3-dioxopiperazine-1-carboxamido)acetamido)-2-hydroxy-3,4-dihydro-2H-benzo[e][1,2]oxaborinine-8-carboxylic acid], the EC50 at E. coli PBP2 was 30 to 500 µM; on E. coli PBP1b it was over 100 µM.
On to `CCN1CCN(C(=O)NC(C(=O)N[C@H]2Cc3ccc(F)c(C(=O)O)c3OB2O)c2csc(N)n2)C(=O)C1=O` (stereo partly drawn) [Example 109, (3R)-3-(2-(2-aminothiazol-4-yl)-2-(4-ethyl-2,3-dioxopiperazine-1-carboxamido)acetamido)-7-fluoro-2-hydroxy-3,4-dihydro-2H-benzo[e][1,2]oxaborinine-8-carboxylic acid], for which the EC50 is over 500 µM on E. coli PBP2 (setting [2]) and over 100 µM at E. coli PBP1b. In addition, in experiment [1], the MIC fell in the range of 2 to 4 mg/L (≈ 3.65 to 7.3 µM).
For the compound `CCN1CCN(C(=O)N[C@@H](C(=O)N[C@H]2Cc3ccc(F)c(C(=O)O)c3OB2O)[C@@H](C)O)C(=O)C1=O` [Example 110, (R)-3-((2R,3R)-2-(4-ethyl-2,3-dioxopiperazine-1-carboxamido)-3-hydroxybutanamido)-7-fluoro-2-hydroxy-3,4-dihydro-2H-benzo[e][1,2]oxaborinine-8-carboxylic acid], the EC50 at E. coli PBP2 (setting [2]) is over 500 µM; at E. coli PBP1b, over 100 µM. In experiment [1], the MIC is 8 to 16 mg/L (≈ 16.2 to 32.4 µM).
In the same order, the values of `CCN1CCN(C(=O)NC(C(=O)N[C@H]2Cc3cccc(C(=O)O)c3OB2O)c2cccc(O)n2)C(=O)C1=O` (stereo partly drawn) [Example 117, (3R)-3-(2-(4-ethyl-2,3-dioxopiperazine-1-carboxamido)-2-(6-hydroxypyridin-2-yl)acetamido)-2-hydroxy-3,4-dihydro-2H-benzo[e][1,2]oxaborinine-8-carboxylic acid] are over 500 µM, over 100 µM and 32 to 64 mg/L (≈ 60.9 to 122 µM).
As to `CCN1CCN(C(=O)NC(C(=O)N[C@H]2Cc3cccc(C(=O)O)c3OB2O)c2cnc(O)cn2)C(=O)C1=O` (stereo partly drawn) [Example 121, (3R)-3-(2-(4-ethyl-2,3-dioxopiperazine-1-carboxamido)-2-(5-hydroxypyrazin-2-yl)acetamido)-2-hydroxy-3,4-dihydro-2H-benzo[e][1,2]oxaborinine-8-carboxylic acid], the EC50 at E. coli PBP2 (setting [2]) is over 500 µM; at E. coli PBP1b, over 100 µM.
In the case of `O=C(O)c1c(F)ccc2c1OB(O)[C@@H](NC(=O)C(NC(=O)N1CCN(CCF)C(=O)C1=O)c1ccc(O)c(O)c1Cl)C2` (stereo partly shown) [Example 131], the EC50 at E. coli PBP2 (setting [2]) is over 500 µM; at E. coli PBP1b it was 10 to 100 µM.
